In patent US9790229B2, “Bruton's tyrosine kinase inhibitors” (priority 2009, dated 2017) one finds IC50 data, which are given here for 43 compounds.

The target in one assay is BTK (Homo sapiens (Human), UniProt Q06187). The assay is described as follows: In vitro BTK kinase assay: BTK-POLYGAT-LS ASSAY.
BTK, sequence (Q06187 whole entry): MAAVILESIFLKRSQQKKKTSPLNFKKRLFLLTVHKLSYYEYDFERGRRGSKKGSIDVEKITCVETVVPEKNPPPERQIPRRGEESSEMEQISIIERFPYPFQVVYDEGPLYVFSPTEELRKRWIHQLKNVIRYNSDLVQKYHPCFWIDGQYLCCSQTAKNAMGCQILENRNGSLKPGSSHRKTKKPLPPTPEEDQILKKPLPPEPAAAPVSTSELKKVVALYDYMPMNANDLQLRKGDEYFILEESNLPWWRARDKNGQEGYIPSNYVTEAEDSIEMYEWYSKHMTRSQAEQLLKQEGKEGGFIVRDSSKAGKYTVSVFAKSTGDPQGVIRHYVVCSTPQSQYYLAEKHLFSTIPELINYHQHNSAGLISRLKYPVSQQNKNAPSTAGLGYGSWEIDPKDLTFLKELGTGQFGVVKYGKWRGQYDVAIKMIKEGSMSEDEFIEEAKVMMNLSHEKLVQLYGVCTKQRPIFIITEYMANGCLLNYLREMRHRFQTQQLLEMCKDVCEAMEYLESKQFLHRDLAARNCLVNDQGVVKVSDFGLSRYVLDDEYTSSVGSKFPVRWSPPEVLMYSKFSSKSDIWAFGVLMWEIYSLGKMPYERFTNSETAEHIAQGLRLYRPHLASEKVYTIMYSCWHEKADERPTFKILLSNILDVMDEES
Conditions: not given
As to `O=C(Nc1ccccc1)Nc1cccc(C2CCCN(c3ncnc4[nH]cnc34)C2)c1` (stereo not shown) [Cmpd 103, 1-(3-(1-(9H-Purin-6-yl)piperidin-3-yl)phenyl)-3-phenylurea], the IC50 was 100 to 999 nM.

With `O=C(Nc1cccc(C2CCCN(c3ncnc4[nH]ccc34)C2)c1)Nc1cccc2cc[nH]c12` (stereo not shown) [compound 211], the IC50 was 1000 to 10000 nM.

Regarding `O=C(Nc1cccc(F)c1)Nc1cccc(C2CCCN(c3ncnc4[nH]ccc34)C2)c1` (stereo not shown) [compound 183], the IC50 was 1000 to 10000 nM.

Regarding `O=C(Nc1cc(C2CCCN(c3ncnc4[nH]ccc34)C2)ccc1OC(F)(F)F)c1c(F)cccc1Cl` (stereo not shown) [Cmpd 90, N-(5-(1-(7H-pyrrolo[2,3-d]pyrimidin-4-yl)piperidin-3-yl)-2-(trifluoromethoxy)phenyl)-2-chloro-6-fluorobenzamide], the IC50 lay within 100 to 999 nM.

Take `O=C(Nc1ccc(Cl)cc1)Nc1cccc(C2CCCN(c3ncnc4[nH]ccc34)C2)c1` (stereo not shown) [Cmpd 27, 1-(3-(1-(7H-pyrrolo[2,3-d]pyrimidin-4-yl)piperidin-3-yl)phenyl)-3-(4-chlorophenyl)urea]: the IC50 was 1000 to 10000 nM.

Compound `Cc1ccnc(Cl)c1NC(=O)Nc1cccc(C2CCCN(c3ncnc4[nH]ccc34)C2)c1` (stereo not shown) [compound 190] registered an IC50 of 1000 to 10000 nM.

`Nc1ncnc(N2CCC[C@@H](N3CCCC(Nc4cc(F)cc(Cl)c4)C3=O)C2)c1Cl` (stereo partly drawn) [compound 289, (3′R)-1′-(6-Amino-5-chloropyrimidin-4-yl)-3-(3-chloro-5-fluorophenylamino)-1,3′-bipiperidin-2-one] yielded an IC50 of 100 to 999 nM.

Compound `CN1CCN(c2ccccc2NC(=O)Nc2cccc(C3CCCN(c4ncnc5[nH]ccc45)C3)c2)CC1` (stereo not shown) [compound 209] came in with an IC50 of 1000 to 10000 nM.

The compound `O=C(Nc1ccccc1)Nc1cccc(C2CN(c3ncnc4[nH]ccc34)CCN2)c1` (stereo not shown) [compound 125, 1-(3-(4-(7H-pyrrolo[2,3-N]pyrimidin-4-yl)piperazin-2-yl)phenyl)-3-phenylurea] came in with an IC50 of 1000 to 10000 nM.

In turn, `CCc1cccc(CC)c1NC(=O)Nc1cccc(C2CCCN(c3ncnc4[nH]ccc34)C2)c1` (stereo not shown) [Cmpd 33, 1-(3-(1-(7H-pyrrolo[2,3-d]pyrimidin-4-yl)piperidin-3-yl)phenyl)-3-(2,6-diethylphenyl)urea] yielded an IC50 of 100 to 999 nM.

On to `O=C1C(Nc2ccccc2)CCCN1[C@@H]1CCCN(c2ncnc3[nH]ccc23)C1` (stereo partly drawn) [compound 271, (3′R)-3-(phenylamino)-1′-(7H-pyrrolo[2,3-d]pyrimidin-4-yl)-1,3′-bipiperidin-2-one], for which the IC50 is 100 to 999 nM.

Regarding `Nc1ncnc(N2CC[C@@H](O)[C@H](N3CCC[C@H](Nc4cc(Cl)cc(Cl)c4)C3=O)C2)c1F` [compound 328, trans (3S)-1′-(6-Amino-5-fluoropyrimidin-4-yl)-3-(3,5-dichlorophenylamino)-4′-hydroxy-1,3′-bipiperidin-2-one], the IC50 lay within 1000 to 10000 nM.

Compound `O=C(Nc1cccc(C2CCCN(c3ncnc4[nH]ccc34)C2)c1)Nc1ccccc1C(F)(F)F` (stereo not shown) [compound 173] came in with an IC50 of 100 to 999 nM.

Regarding `O=C1[C@@H](Nc2ccccc2)CCN1[C@@H]1CCCN(c2ncnc3[nH]ccc23)C1` [compound 272], the IC50 was 1000 to 10000 nM.

`CC(C)(C)c1ccccc1NC(=O)Nc1cccc(C2CCCN(c3ncnc4[nH]ccc34)C2)c1` (stereo not shown) [compound 167] returned an IC50 of 100 to 999 nM.

Turning to `O=C(Nc1cccc(C2CCCN(c3ncnc4[nH]ccc34)C2)c1)c1cccc(Cl)c1` (stereo not shown) [Cmpd 4, N-(3-(1-(7H-pyrrolo[2,3-d]pyrimidin-4-yl)piperidin-3-yl)phenyl)-3-chlorobenzamide], the concentration for half-maximal inhibition (IC50) fell in the range of 1000 to 10000 nM.

Take `Cc1c(N)ncnc1N1CCCC(c2cccc(NC(=O)Nc3ccccc3)c2)C1` (stereo not shown) [Cmpd 98, 1-(3-(1-(6-Amino-5-methylpyrimidin-4-yl)piperidin-3-yl)phenyl)-3-phenylurea]: the half-maximal inhibitory concentration (IC50) was 1000 to 10000 nM.

In turn, `O=C(Nc1cccc(C2CCCN(c3ncnc4[nH]ccc34)C2)c1)Nc1ccccn1` (stereo not shown) [Cmpd 29, 1-(3-(1-(7H-pyrrolo[2,3-d]pyrimidin-4-yl)piperidin-3-yl)phenyl)-3-(pyridin-2-yl)urea] showed an IC50 of 1000 to 10000 nM.

The assay is the same for the next values; noted with them: read-out: IC50 (10 uM ATP); 10 uM ATP; in vitro Btk kinase assay, Example 41.
`C[C@H](NC(=O)Nc1cccc(C2CCCN(c3ncnc4[nH]ccc34)C2)c1)c1ccccc1` (stereo partly shown) [compound 248]: the half-maximal inhibitory concentration (IC50) is more than 10000 nM.

For the compound `O=c1c(Nc2cccc(Cl)c2)c(Nc2cccc(C3CCCN(c4ncnc5[nH]ccc45)C3)c2)c1=O` (stereo not shown) [Cmpd 71, 3-(3-(1-(7H-pyrrolo[2,3-d]pyrimidin-4-yl)piperidin-3-yl)phenylamino)-4-(3-chlorophenylamino)cyclobut-3-ene-1,2-dione], the half-inhibitory concentration (IC50) is more than 10000 nM.

As to `Nc1ncnc(N2CC[C@@H](C(F)(F)F)[C@H](N3CC=CC[C@@H](Nc4cc(F)cc(Cl)c4)C3=O)C2)c1F` [compound 350], the IC50 is less than 100 nM.

`O=S(=O)(Nc1cccc(C2CCCN(c3ncnc4[nH]ccc34)C2)c1)c1ccccc1` (stereo not shown) [Cmpd 68, N-(3-(1-(7H-pyrrolo[2,3-d]pyrimidin-4-yl)piperidin-3-yl)phenyl)benzenesulfonamide]: the IC50 was more than 10000 nM.

For `CNC(=O)Nc1cccc(C2CCCN(c3ncnc4[nH]ccc34)C2)c1` (stereo not shown) [compound 262], the IC50 was more than 10000 nM.

Consider `O=C(Nc1csc(C2CCCN(c3ncnc4[nH]ncc34)C2)n1)Nc1c(F)cc(F)cc1N1CCCC1` (stereo not shown) [compound 112, 1-(2-(1-(1H-pyrazolo[3,4-d]pyrimidin-4-yl)piperidin-3-yl)thiazol-4-yl)-3-(2,4-difluoro-6-(pyrrolidin-1-yl)phenyl)urea], for which the 50% inhibitory concentration (IC50) is less than 100 nM.

In the case of `O=C(Nc1cccc(C2CCCN(c3ncnc4[nH]ccc34)C2)c1)Nc1ccccc1N1CC[C@@H](O)C1` (stereo partly shown) [compound 149], the IC50 was less than 100 nM.

For the compound `O=C1C(Nc2cc(F)cc(Cl)c2)CCCN1[C@H]1CN(c2ncnc3[nH]ccc23)CC[C@@H]1C(F)(F)F` (stereo partly shown) [compound 352], the IC50 is less than 100 nM.

With `O=C(NCCC1CCCCC1)Nc1cccc(C2CCCN(c3ncnc4[nH]ccc34)C2)c1` (stereo not shown) [compound 259], the half-maximal inhibitory concentration (IC50) is more than 10000 nM.

As for `O=C(Nc1ccccc1)Nc1ncc(C2CCCN(c3ncnc4[nH]ccc34)C2)s1` (stereo not shown) [compound 115, 1-(5-(1-(7H-pyrrolo[2,3-d]pyrimidin-4-yl)piperidin-3-yl)thiazol-2-yl)-3-phenylurea], the IC50 is more than 10000 nM.

Regarding `COc1cccc(C(=O)Nc2cccc(C3CCCN(c4ncnc5[nH]ccc45)C3)c2)c1` (stereo not shown) [Cmpd 7, N-(3-(1-(7H-pyrrolo[2,3-d]pyrimidin-4-yl)piperidin-3-yl)phenyl)-3-methoxybenzamide], the IC50 was more than 10000 nM.

For `O=C1C(Nc2cc(Cl)cc(C(F)(F)F)c2)CCCN1[C@@H]1CCCN(c2ncnc3[nH]ncc23)C1` (stereo partly drawn) [compound 305, (3′R)-3-(3-Chloro-5-(trifluoromethyl)phenylamino)-1′-(1H-pyrazolo[3,4-d]pyrimidin-4-yl)-1,3′-bipiperidin-2-one], the IC50 is less than 100 nM.

As for `Nc1ncnc(N2CC[C@@H](F)[C@H](N3CCC[C@@H](Nc4cc(F)cc(Cl)c4)C3=O)C2)c1F` [compound 342, (3R,3′R,4′R)-1′-(6-amino-5-fluoropyrimidin-4-yl)-3-(3-chloro-5-fluorophenylamino)-4′-fluoro-1,3′-bipiperidin-2-one], the half-inhibitory concentration (IC50) was more than 10000 nM.

For `CC(C)(C)NC(=O)Nc1cccc(C2CCCN(c3ncnc4[nH]ccc34)C2)c1` (stereo not shown) [compound 250], the IC50 was more than 10000 nM.

Regarding `Cc1ccc(NC(=O)c2ccccc2)cc1C1CCCN(c2ncnc3[nH]ccc23)C1` (stereo not shown) [Cmpd 80, N-(3-(1-(7H-pyrrolo[2,3-d]pyrimidin-4-yl)piperidin-3-yl)-4-methylphenyl)benzamide], the IC50 is more than 10000 nM.

Regarding `N#Cc1c(N)ncnc1N1CCCC(c2nc(NC(=O)Nc3ccccc3N3CCCC3)cs2)C1` (stereo not shown) [compound 109, 1-(2-(1-(6-amino-5-cyanopyrimidin-4-yl)piperidin-3-yl)thiazol-4-yl)-3-(2-(pyrrolidin-1-yl)phenyl)urea], the IC50 was less than 100 nM.

Turning to `Cc1ccc(C2CCCN(c3ncnc4[nH]ccc34)C2)cc1NC(=O)Nc1ccccc1` (stereo not shown) [Cmpd 81, 1-(5-(1-(7H-pyrrolo[2,3-d]pyrimidin-4-yl)piperidin-3-yl)-2-methylphenyl)-3-phenylurea], the IC50 was more than 10000 nM.

As to `Nc1ncnc(N2CC[C@H](O)[C@@H](N3CCC[C@@H](Nc4cc(Cl)cc(Cl)c4)C3=O)C2)c1F` [compound 326, trans (3R)-1′-(6-Amino-5-fluoropyrimidin-4-yl)-3-(3,5-dichlorophenylamino)-4′-hydroxy-1,3′-bipiperidin-2-one], the half-inhibitory concentration (IC50) was less than 100 nM.

For `Cc1ccc(NC(=O)Nc2ccccc2)cc1C1CCCN(c2ncnc3[nH]ccc23)C1` (stereo not shown) [Cmpd 79, 1-(3-(1-(7H-pyrrolo[2,3-d]pyrimidin-4-yl)piperidin-3-yl)-4-methylphenyl)-3-phenylurea], the IC50 is more than 10000 nM.

As to `O=C(Nc1cccc(C2CCCN(c3ncnc4[nH]ccc34)C2)c1)Nc1ccccc1N1CCC[C@H]1CO` (stereo partly shown) [compound 152], the IC50 is less than 100 nM.

Turning to `COc1ccccc1C(=O)Nc1cccc(C2CCCN(c3ncnc4[nH]ccc34)C2)c1` (stereo not shown) [Cmpd 6, N-(3-(1-(7H-pyrrolo[2,3-d]pyrimidin-4-yl)piperidin-3-yl)phenyl)-2-methoxybenzamide], the IC50 was more than 10000 nM.

Take `N[C@H](C(=O)Nc1cccc(C2CCCN(c3ncnc4[nH]ccc34)C2)c1)c1ccccc1` (stereo partly drawn) [Cmpd 20, (2S)—N-(3-(1-(7H-pyrrolo[2,3-d]pyrimidin-4-yl)piperidin-3-yl)phenyl)-2-amino-2-phenylacetamide]: the concentration for half-maximal inhibition (IC50) was more than 10000 nM.

On to `Nc1ncnc(N2CCC[C@@H](N3CC(O)C(O)C[C@@H](Nc4cc(F)cc(Cl)c4)C3=O)C2)c1F` (stereo partly drawn) [compound 348, (3R)-1-((R)-1-(6-amino-5-fluoropyrimidin-4-yl)piperidin-3-yl)-3-(3-chloro-5-fluorophenylamino)-5,6-dihydroxyazepan-2-one], for which the IC50 is less than 100 nM.

Consider `Nc1ncnc(N2CCOCC(N3CCCC(Nc4cc(F)cc(Cl)c4)C3=O)C2)c1F` (stereo not shown) [compound 345, 1-(4-(6-Amino-5-fluoropyrimidin-4-yl)-1,4-oxazepan-6-yl)-3-(3-chloro-5-fluorophenylamino)piperidin-2-one], for which the IC50 was less than 100 nM.

For `CC(C)(C)c1cccc(NC(=O)Nc2cccc(C3CCCN(c4ncnc5[nH]ccc45)C3)c2)c1` (stereo not shown) [compound 264], the IC50 is more than 10000 nM.
